Data as given in US20240217946A1, “ANTIDEPRESSANT AND ANXIOLYTIC SUBSTITUTED CINNAMAMIDE COMPOUND” (TASLY PHARMACEUTICAL GROUP CO., LTD., priority 2021, published 2024).

Key:
C57 BL/6 mice = assay: Mice tail suspension test after single oral administration; assay type: in vivo; conditions: 30 min after single administration; for Immobility time within 6 min: n = 10, mean ± SD
Description: “Behavioral despair” models were developed by Porsolt et al. in 1977, including rats and mice forced swimming models and mice tail suspension models, which were acute stress models. Mice tail suspension experiment was a simple and easy-to-implement experimental method for evaluating antidepressant drugs introduced by Stern et al. in 1985, and its principle was the same as that of forced swimming “immobility” experiment.
40 mice were divided into 4 groups according to the Excel complete random grouping method, with 10 animals in each group. […] Therefore, in this experimental study, with 30 mg/kg as the low dosage of compound M2, 60 mg/kg was set as the high dosage of compound M2 to conduct research in comparison with 60 mg/kg compound I-5.
Each test group was administered intragastrically (i.g.) at 0.2 ml/10 g body weight.
Mice tail suspension test was carried out 30 min after a single oral administration, and the tail suspension lasted for 6 min. The immobility time of mice within 6 min was recorded.
(§1) Data was expressed as mean±standard (mean±SD) difference, and statistics of data differences were made by one-way analysis of variance (ANOVA) or nonparametric test, and differences between groups were determined by P<0.05.

[1] = test system: 5-HT reuptake in rat brain synaptosomes; assay: 3H-5-HT reuptake by rat brain synaptosomes; assay type: biochemical; conditions: 3H-5HT 10 nM, read-out: 5-HT inhibition rate % IC50
Description: At present, it is believed that absolute or relative deficiencies of the central monoamine neurotransmitters 5-hydroxytryptamine (5-HT), norepinephrine (NA) and dopamine (DA) are closely related to depression and anxiety.
Synaptosomes were separated using methods in literature to prepare brain synaptosomes. SD rats were rapidly decapitated with a small animal decapitator. After decapitation, brains were taken out quickly and precooled in an ice-water mixture, and the pia mater and vascular tissue were removed. Brain tissue was taken out. 10 times volume (ml/g) of 10 mM Tris HCl buffer (containing 0.32 M sucrose, pH 7.4) was added, an ultrasonic cell pulverizer was used for homogenization (maintaining at a low temperature), and the brain tissue was homogenized and centrifuged for 10 min (4° C., 1,000 g). After balanced centrifugation (1500 g, 10 min) at 4° C., precipitate was discarded, then supernatant was taken, and centrifugation (20000 g) was performed again for 30 min. The supernatant was discarded and the precipitate, i.e. crude extract of synaptic corpuscles, was retained. […]
The percentage inhibition of isotope ligand binding by each compound was calculated according to the following equation: […]

ICR mice = assay: Elevated plus maze experiment in mice, single administration; assay type: in vivo; conditions: for OE % / OT %: 30 min after single administration; for anxiolytic activity in elevated plus maze vs solvent control group: comparative study, single intragastric administration of 20 mg/kg
Procedure: 50 male ICR mice were randomly divided into 5 groups (a solvent control group, estazolam group, M2 high dosage group, M2 medium dosage group, M2 low dosage group), with 10 mice in each group. The compound M2 high, medium and low dosage groups were intragastrically administered at 20 mg/kg. 10 mg/kg and 5 mg/kg, respectively; the positive drug estazolam was intragastrically administered at 2.5 mg/kg; and the solvent control group was gavaged with an equal volume of solvent. Behavior test was performed in each group 30 min after single administration. The experiments were required to be conducted between 8:00 am and […], and all animals entered the test laboratory on the previous day.
The laboratory was dimly lit (with the lowest brightness that can distinguish the subtle activities of mice at a distance of 1.5 m) and the brightness was kept constant, with a room temperature of about 20° C., and kept quiet. Before the maze test, each mouse was placed in a 35 cm*10 cm*5 cm plastic box and left to explore freely for 5 min and then quickly placed at the central platform of an elevated plus maze, with its head facing one of the open arms, and the following indexes were recorded upon release. Each mouse was tested for 5 min. Observers observed and recorded animal activities at a distance of 1.5 m. At intervals, the maze was wiped with a wet cloth to remove feces, and then wiped with a dry cloth before a next mouse was tested.
• (1) The number of open arm entries (OE): the number of entries into any open arm, based on the fact that all four claws of the mouse entered the arm, and a complete exit of one claw from the arm indicated the completion of the entry activity; • (2) open arm time (OT): the time of entering an open arm, with the unit of seconds; • (3) the number of close arm entries (CE): the number of entries into any close arm, based on the fact that all four claws of the mouse entered the arm; • (4) close arm time (CT): the time of entering a close arm, with the unit of seconds; • (5) percentage of open arm time: OT %=OT/(OT+CT)*100%; and • (6) percentage of open arm entries: OE %=OE/(OE+CE)*100%.
70 male ICR mice were randomly divided into 7 groups (a solvent control group, estazolam group, compound M2 group, compound II-3 group, compound II-4 group, compound II-5 group, and compound II-10 group), with 10 mice in each group. The dosage of M2 and its four structurally similar compounds was determined as 20 mg/kg according to the experimental results of 3.1: the positive drug estazolam was administered intragastrically at 2.5 mg/kg; and the solvent control group was gavaged with an equal volume of solvent. Behavior test was performed in each group 30 min after single administration. The experiments were required to be conducted between 8:00 am and […], and all animals entered the test laboratory on the previous day.
The behavioral test method and behavioral observation indexes were the same as those in 3.1.
as §1

[2] = comparative study (Table 13), 20 mg/kg i.g.
[3] = dosage exploration study (Table 12), 5 mg/kg i.g.
[4] = dosage exploration study (Table 12), 10 mg/kg i.g.
[5] = dosage exploration study (Table 12), 20 mg/kg i.g.

| Structure (SMILES) | Immobility time within 6 min (C57 BL/6 mice; 60 mg/kg i.g.) | effect on immobility time of mice in tail suspension vs blank group (C57 BL/6 mice; 60 mg/kg) | IC50 [1] | OE % (ICR mice; [2]) | OT % (ICR mice; [2]) | anxiolytic activity in elevated plus maze vs solvent control group (ICR mice) | Immobility time within 6 min (C57 BL/6 mice; 30 mg/kg i.g.) | effect on immobility time of mice in tail suspension vs blank group (C57 BL/6 mice; 30 mg/kg) | OE % (ICR mice; [3]) | OT % (ICR mice; [3]) | OE % (ICR mice; [4]) | OT % (ICR mice; [4]) | OE % (ICR mice; [5]) | OT % (ICR mice; [5]) | effective dosage for single administration (anxiolytic) (ICR mice; mice, elevated plus maze) |
| --- | --- | --- | --- | --- | --- | --- | --- | --- | --- | --- | --- | --- | --- | --- | --- |
| CC(C)CNC(=O)/C=C/c1cc2c(c(C(F)(F)F)c1)OCO2 [Compound I-5] | 218.0 ± 35.3 s | not significantly affected | 18.5 ± 2.47 nM | 47.01 ± 6.30 % | 46.70 ± 9.98 % | significant anxiolytic activity | – | – | – | – | – | – | – | – | – |
| NC(=O)/C=C/c1cc2c(c(C(F)(F)F)c1)OCO2 [Compound M2] | 171.8 ± 21.7 s | significantly shortened | 98.9 ± 2.42 nM | 57.94 ± 11.72 % | 57.36 ± 8.77 % | significant anxiolytic activity | 183.9 ± 43.5 s | no statistically significant difference | 35.46 ± 10.13% | 38.52 ± 12.19% | 36.13 ± 14.12% | 35.92 ± 13.11% | 38.47 ± 7.13 % | 44.60 ± 9.33 % | 20 mg/kg |
